# Test results published in publication PMC11767451, “Novel Approaches to Monitor Pharmacokinetics and Metabolism of Gemcitabine-Ibandronate Conjugate in Mice and Dogs” (Molecules, 2025).
# Key:
# [1] = Stability in dog plasma (accelerated, freeze-thaw, frozen PK samples); type: in vitro ADME; conditions: for %-ACC, frozen PK sample stability: dog plasma PK samples re-extracted after 1.5 years at <−70 °C; for %-ACC (% accuracy vs nominal): 3 freeze-thaw cycles (<−70 °C / bench)
# Procedure: (§1) For stability testing, QC samples were prepared by spiking plasma with QC stock solutions. These stability samples were stored for the predetermined time periods before extraction (accelerated stability and freeze–thaw stability) or after extraction (autosampler stability) and were run with freshly prepared calibrator standards. For accelerated stability, samples were stored at 4 °C and at room temperature for 4 h and 24 h prior to sample extraction. […] Assay A compounds (GEM-IB and IB) were also tested at 1 h and 2 h exposed to 4 °C and at room temperature to evaluate for which duration GEM-IB is stable.
# (§2) Freeze–thaw cycle stability was assessed by storing the stability samples overnight in the freezer (<−70 °C) and thawing them the next day on the bench. Once thawed, samples were placed back into the freezer. This was carried out for three freeze–thaw cycles for all compounds.
# (§3) To assess the stability of study samples, PK samples were re-extracted after storage at <−70 °C for 1.5 years (see Supplementary Table S4).
# (§4) Method development and validation was conducted following applicable FDA guidelines for bioanalytical assays, as considered fit for purpose. Specificity. Endogenous interferences were excluded by analysis of blank plasma from 6 different individual lots of plasma. The lower limit of quantification (LLOQ) was determined as the lowest concentration consistently achieving an accuracy better than ±20% of the nominal concentration, with imprecision ≤20%. Predefined acceptance criteria. The performance of the assay was considered acceptable if intra- and inter-day imprecision (coefficient of variance, %CV) at each concentration was ≤15%, except at the LLOQ (≤20%). Intra- and inter-day accuracy had to be ±15% of the nominal value, except at the LLOQ (±20%). Calibration curves had to have a correlation coefficient (r) of 0.99 or better. Analytical recovery and imprecision. Intra- and inter-day analytical accuracy and imprecision were tested at least at four concentration levels depending on the LLOQ for each compound. Intra-day imprecision and accuracy were determined with n = 6 per QC level. Inter-day imprecision and accuracy were measured over 3 days, with six replicates for each QC concentration (n = 18). Extraction efficiency and matrix effect. Extraction efficiency for GEM-IB and metabolites was established by comparing the signals of the analytes after the extraction of QCs (n = 6/concentrations), with the signals of the extracted blank matrix spiked with the respective concentrations of analytes after the extraction procedure. The matrix effect was determined by comparing the analyte LC-MS/MS signal after spiking of the analyte into the extracted blank matrix (matrix from 6 different individual lots, analyte concentrations as for the QC samples) with the HPLC-MS/MS signal of the same amount of analyte in neat solution [25]. Carry-over. Carry-over was assessed by injecting blank buffer samples after analysis of the highest calibrators. Carry-over was considered insignificant if there was no signal at the relevant retention times exceeding 20% of the analyte signals at the LLOQ. Stability. QC samples were freshly prepared. One set was extracted and was analyzed immediately to determine baseline signals.
# [2] = Autosampler stability of extracted dog plasma samples at 4 °C; type: physicochemical
# Procedure: (§5) The stability of extracted dog and mouse plasma samples in the autosampler at 4 °C was established for 24 and 48 h. Except for GEM-IB, in mouse and dog plasma extracts, all analytes were within ±20% of the nominal enriched concentration for up to 48 h in the autosampler. GEM-IB was stable for up to 24 h under these conditions.
# as §4, with “signals. Analyte stability in plasma was evaluated at two QC concentration levels (n = 3/concentration level) under different conditions: 1, 2, and 24 h at room temperature and at 4 °C. In addition, stability after extraction was determined after 24 h and 48 h at 4 °C in the autosampler and for up to 3 freeze (−70 °C)–thaw (ambient) cycles. Stability was assessed by comparing analyte concentrations with baseline (t0) concentrations. Stability was assumed when the results were within ±20% of the baseline concentrations. Long-term stability estimates were performed by re-extraction of samples used during the PK study (n = 6). Samples were initially analyzed for the PK assessment and were stored for 1.5 years (GEM-IB and IB) and 2.5 years (GEM, GEMMP, dFdU, and dFdU-MP) at <−70 °C prior to reanalysis. Stability was assessed by comparing analyte concentrations with the initial assessments. Stability was acceptable when the results were within ±20% of the baseline concentrations and the percent standard deviation (%-SD) was below 25%.” for “signals.”
# [3] = Stability in mouse plasma (accelerated, freeze-thaw, frozen PK samples); type: in vitro ADME; conditions: for %-ACC, frozen PK sample stability: mouse plasma PK samples re-extracted after 1.5 years at <−70 °C; for %-ACC (% accuracy vs nominal): 3 freeze-thaw cycles (<−70 °C / bench)
# Procedure: as §1, §2, §3, §4
# [4] = Autosampler stability of extracted mouse plasma samples at 4 °C; type: physicochemical
# Procedure: as §5
# as §4, with “signals. Analyte stability in plasma was evaluated at two QC concentration levels (n = 3/concentration level) under different conditions: 1, 2, and 24 h at room temperature and at 4 °C. In addition, stability after extraction was determined after 24 h and 48 h at 4 °C in the autosampler and for up to 3 freeze (−70 °C)–thaw (ambient) cycles. Stability was assessed by comparing analyte concentrations with baseline (t0) concentrations. Stability was assumed when the results were within ±20% of the baseline concentrations. Long-term stability estimates were performed by re-extraction of samples used during the PK study (n = 6). Samples were initially analyzed for the PK assessment and were stored for 1.5 years (GEM-IB and IB) and 2.5 years (GEM, GEMMP, dFdU, and dFdU-MP) at <−70 °C prior to reanalysis. Stability was assessed by comparing analyte concentrations with the initial assessments. Stability was acceptable when the results were within ±20% of the baseline concentrations and the percent standard deviation (%-SD) was below 25%.” for “signals.”
Compound,"%-ACC, frozen PK sample stability [1]",%-ACC (% accuracy vs nominal) ([1]; dog plasma) [%],"%-ACC (percent mean accuracy vs nominal) ([1]; dog plasma, 4 hours 4°C) [%]","%-ACC (percent mean accuracy vs nominal) ([1]; dog plasma, 4 hours RT) [%]","%-ACC (percent mean accuracy vs nominal) ([1]; dog plasma, 24 hours 4°C) [%]","%-ACC (percent mean accuracy vs nominal) ([1]; dog plasma, 24 hours RT) [%]",%-ACC (% accuracy vs nominal) ([2]; 24 hours autosampler 4 °C) [%],%-ACC (% accuracy vs nominal) ([2]; 48 hours autosampler 4 °C) [%],"%-ACC, frozen PK sample stability [3]",%-ACC (% accuracy vs nominal) ([3]; mouse plasma) [%],"%-ACC (percent mean accuracy vs nominal) ([3]; mouse plasma, 4 hours 4°C) [%]","%-ACC (percent mean accuracy vs nominal) ([3]; mouse plasma, 4 hours RT) [%]","%-ACC (percent mean accuracy vs nominal) ([3]; mouse plasma, 24 hours 4°C) [%]","%-ACC (percent mean accuracy vs nominal) ([3]; mouse plasma, 24 hours RT) [%]",%-ACC (% accuracy vs nominal) ([4]; 24 hours autosampler 4 °C) [%],%-ACC (% accuracy vs nominal) ([4]; 48 hours autosampler 4 °C) [%],also measured
"Nc1ccn([C@@H]2O[C@H](CO)[C@@H](O)C2(F)F)c(=O)n1 [GEM, gemcitabine]",90.4% ± 23.9,103.4,102.7,101.7,94.8,95.4,100.7,106.8,94.2% ± 11.8,103.4,94.5,89.3,87.9,91.0,102.0,107.0,–
CCCCCN(C)CCC(O)(P(=O)(O)O)P(=O)(O)OP(=O)(O)OC[C@H]1O[C@@H](n2ccc(N)nc2=O)C(F)(F)[C@@H]1O (stereo partly shown) [GEM-IB],–,84.7,–,–,83.6,13.7,86.2,63.4,–,16.9,–,–,2.9,0.0,96.8,59.7,"%-ACC (percent mean accuracy vs nominal) ([1]; dog plasma, 2 hours 4°C (IB and GEM-IB, footnote)): 99.3%; %-ACC (percent mean accuracy vs nominal) ([1]; dog plasma, 2 hours RT (IB and GEM-IB, footnote)): 83.5%; time stable on ice ([1]; dog plasma, on ice): up to 24 h; percent of the nominal concentration ([3]; mouse plasma, 1 h on ice): 89.2% ± 7.0; %-ACC (percent mean accuracy vs nominal) ([3]; mouse plasma, 2 hours 4°C / on ice (IB and GEM-IB, footnote)): 64.2%; %-ACC (percent mean accuracy vs nominal) ([3]; mouse plasma, 2 hours RT (IB and GEM-IB, footnote)): 31.0%; time stable on ice ([3]; mouse plasma, on ice): up to 1 h"
"Nc1ccn([C@@H]2O[C@H](COP(=O)(O)O)[C@@H](O)C2(F)F)c(=O)n1 [GEMMP, gemcitabine-5′-phosphate]",failed the criteria,92.4,89.5,98.2,88.1,98.2,92.4,90.0,failed the criteria,92.4,91.9,87.9,91.4,88.1,96.9,100.4,–
